{"source": "patent US20080242688A1", "about": "“Method 741” (ASTRAZENECA AB, priority 2007, published 2008)", "test_system": "dog Purkinje fibre", "experiment": "Dog isolated cardiac Purkinje fibres, action potential", "settings": "0.5 and 1 Hz", "experimental": "Effects of AZD0328 on cardiac action potentials were assessed in 4 dog Purkinje fibre preparations. (Table 3). The following action potential parameters were measured at the stimulation frequencies 0.5 and 1 Hz: action potential duration at 50% (APD50), 70% (APD70) and 90% (APD90) of repolarisation; the maximum velocity of the action potential upstroke (Vmax); the action potential amplitude (APA) and the resting membrane potential (RMP). At both stimulation frequencies, AZD0328 caused a concentration-dependent prolongation of APD50, APD70 and APD90, with significant effects at 5.6 μM and above. There was also an indication of proarrhythmic potential of the compound."}
{"compound": "c1cnc2c(c1)C[C@@]1(CN3CCC1CC3)O2", "note": "[AZD0328, (R)-Spiro[1-azabicyclo[2.2.2]octane-3,2′(3′H)-furo[2,3-b]pyridine]]", "values": [{"measurement": "concentration with significant prolongation of APD50, APD70 and APD90", "result": "≥ 5.6", "unit": "µM"}]}
